Experimental data from ChEMBL document CHEMBL3994625, “Crystal structures, binding interactions, and ADME evaluation of brain penetrant N-substituted indazole-5-carboxamides as subnanomolar, selective monoamine oxidase B and dual MAO-A/B inhibitors” (Eur J Med Chem, 2017).
Values after ≈ are worked out from the molar mass of the structure shown.

Experiments:
[1] = n-octanol-phosphate buffer distribution coefficient, log D of the compound at pH 2 after 90 mins by shake-flask method; assay type: physicochemical
[2] = n-octanol-phosphate buffer distribution coefficient, log D of the compound at pH 7.4 after 90 mins by shake-flask method; assay type: physicochemical
[3] = buffer, pH 7.4, […], 500 µM
[4] = Effective permeability of the compound at pH 7.4 at 200 uM after 4 hrs by PAMPA-BBB assay; assay type: physicochemical; conditions: read-out: Peff
[5] = Effective permeability of the compound at pH 2 at 200 uM after 4 hrs by PAMPA-GI assay; assay type: physicochemical; conditions: read-out: Peff
[6] = buffer, pH 2, […], 500 µM
[7] = n-octanol-phosphate buffer distribution coefficient, log D of the compound at pH 5.5 after 90 mins by shake-flask method; assay type: physicochemical
[8] = biological target: T1, Amine oxidase [flavin-containing] B (Homo sapiens, UniProt P27338); assay: biochemical
T1 sequence (P27338 whole entry): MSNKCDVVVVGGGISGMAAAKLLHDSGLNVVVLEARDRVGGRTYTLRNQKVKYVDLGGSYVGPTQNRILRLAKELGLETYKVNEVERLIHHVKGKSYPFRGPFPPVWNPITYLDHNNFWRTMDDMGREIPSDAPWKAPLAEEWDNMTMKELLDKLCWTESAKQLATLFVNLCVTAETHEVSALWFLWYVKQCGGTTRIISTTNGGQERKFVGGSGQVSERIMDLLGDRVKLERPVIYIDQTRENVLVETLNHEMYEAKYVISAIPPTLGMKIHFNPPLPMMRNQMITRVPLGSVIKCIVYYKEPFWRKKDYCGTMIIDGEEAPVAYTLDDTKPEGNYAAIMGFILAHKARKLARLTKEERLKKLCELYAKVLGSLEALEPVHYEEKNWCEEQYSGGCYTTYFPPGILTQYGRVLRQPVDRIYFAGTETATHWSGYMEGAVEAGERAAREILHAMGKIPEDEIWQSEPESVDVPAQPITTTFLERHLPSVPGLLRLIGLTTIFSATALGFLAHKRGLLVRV

[9] = buffer, pH 5.5, […], 500 µM
physchem [10] = conditions: phosphate buffer, pH 5.5
physchem [11] = conditions: phosphate buffer, pH 2
[12] = Effective permeability of the compound at pH 5.5 at 200 uM after 4 hrs by PAMPA-GI assay; assay type: physicochemical; conditions: read-out: Peff
[13] = Effective permeability of the compound at pH 7.4 at 200 uM after 4 hrs by PAMPA-GI assay; assay type: physicochemical; conditions: read-out: Peff
physchem [14] = conditions: phosphate buffer, pH 7.4
Homo sapiens = species on record: Homo sapiens; assay: Selectivity index, ratio of IC50 for recombinant human MAOA to IC50 for recombinant human MAOB
[15] = biological target: T2, Amine oxidase [flavin-containing] A (Homo sapiens, UniProt P21397); assay: biochemical
T2 sequence (P21397 whole entry): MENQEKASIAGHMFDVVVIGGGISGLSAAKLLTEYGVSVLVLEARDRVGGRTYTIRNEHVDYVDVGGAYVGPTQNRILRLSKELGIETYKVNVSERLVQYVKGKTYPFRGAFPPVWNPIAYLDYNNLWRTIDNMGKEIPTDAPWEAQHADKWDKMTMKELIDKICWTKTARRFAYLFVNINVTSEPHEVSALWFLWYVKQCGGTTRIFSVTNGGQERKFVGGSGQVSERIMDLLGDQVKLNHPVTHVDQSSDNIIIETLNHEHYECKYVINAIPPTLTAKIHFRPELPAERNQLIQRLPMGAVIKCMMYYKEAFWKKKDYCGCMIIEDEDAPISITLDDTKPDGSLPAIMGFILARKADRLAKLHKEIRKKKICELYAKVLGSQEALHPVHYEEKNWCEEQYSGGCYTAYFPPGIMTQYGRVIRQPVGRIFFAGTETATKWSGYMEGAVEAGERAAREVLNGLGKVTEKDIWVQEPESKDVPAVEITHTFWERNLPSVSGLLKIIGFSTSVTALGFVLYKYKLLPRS

[16] = biological target: T3, Amine oxidase [flavin-containing] B (Rattus norvegicus, UniProt P19643); assay: Inhibition of MAOB in Sprague-Dawley rat liver mitochondria using p-tyramine as substrate measured for 45 mins in presence of MAOA inhibitor clorgyline by continuous fluorescence-based method
T3 sequence (P19643 whole entry): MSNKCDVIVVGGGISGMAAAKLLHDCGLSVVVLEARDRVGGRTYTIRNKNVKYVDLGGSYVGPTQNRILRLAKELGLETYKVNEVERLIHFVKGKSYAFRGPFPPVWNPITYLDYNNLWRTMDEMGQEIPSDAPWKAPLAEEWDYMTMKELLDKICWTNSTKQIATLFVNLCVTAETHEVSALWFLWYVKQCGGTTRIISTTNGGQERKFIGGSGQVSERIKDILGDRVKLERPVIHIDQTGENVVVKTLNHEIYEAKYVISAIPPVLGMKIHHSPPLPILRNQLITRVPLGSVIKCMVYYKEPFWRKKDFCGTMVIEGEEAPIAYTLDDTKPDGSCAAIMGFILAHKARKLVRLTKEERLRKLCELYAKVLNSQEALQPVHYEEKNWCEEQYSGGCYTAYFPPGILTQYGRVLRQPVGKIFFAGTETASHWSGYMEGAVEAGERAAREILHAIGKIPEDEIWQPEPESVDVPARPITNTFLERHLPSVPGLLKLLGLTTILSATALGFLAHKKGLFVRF

[17] = biological target: T4, Amine oxidase [flavin-containing] A (Rattus norvegicus, UniProt P21396)
T4 sequence (P21396 whole entry): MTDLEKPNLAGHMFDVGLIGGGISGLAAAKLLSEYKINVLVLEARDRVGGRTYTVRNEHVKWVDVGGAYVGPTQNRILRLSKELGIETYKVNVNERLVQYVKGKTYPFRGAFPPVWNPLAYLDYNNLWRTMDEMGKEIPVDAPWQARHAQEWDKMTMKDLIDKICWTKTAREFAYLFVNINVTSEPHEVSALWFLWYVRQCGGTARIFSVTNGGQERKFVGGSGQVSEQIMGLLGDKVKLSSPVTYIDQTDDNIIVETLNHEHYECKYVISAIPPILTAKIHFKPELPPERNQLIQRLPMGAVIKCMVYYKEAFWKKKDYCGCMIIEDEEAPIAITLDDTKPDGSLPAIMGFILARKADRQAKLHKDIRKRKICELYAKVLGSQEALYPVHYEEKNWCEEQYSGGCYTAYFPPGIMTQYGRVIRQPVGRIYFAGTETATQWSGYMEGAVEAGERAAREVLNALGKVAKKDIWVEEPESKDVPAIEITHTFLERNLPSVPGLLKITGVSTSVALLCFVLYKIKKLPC

Structure (SMILES) | logD at […] [1] | logD at […] [2] | logD at […] [7] | Ratio IC50 (Homo sapiens) | log(Kinetic_solubility) [3] | Papp at 4 h, 200 µM [4] | Papp at 4 h, 200 µM [5] | log(Kinetic_solubility) [6] | Ki [8] | log(Kinetic_solubility) [9] | solubility kinetic at […], 500 µM (physchem [10]) | solubility kinetic at […], 500 µM (physchem [11]) | Papp at 4 h, 200 µM [12] | Papp at 4 h, 200 µM [13] | solubility kinetic at […], 500 µM (physchem [14]) | IC50 [15] | IC50 [16] | IC50 [17] | IC50 [8]
Cn1cc2cc(C(=O)Nc3ccc(Cl)c(Cl)c3)ccc2n1 | 2.49 | 2.97 | 2.54 | – | -4.25 | 29 ×10⁻⁶ cm/s | 14.5 ×10⁻⁶ cm/s | -4.24 | 0.64 nM | -4.3 | 50 µM (≈ 16 µg/mL) | 57.5 µM (≈ 18.4 µg/mL) | 16.1 ×10⁻⁶ cm/s | 17.6 ×10⁻⁶ cm/s | 55.9 µM (≈ 17.9 µg/mL) | – | – | – | –
O=C(Nc1ccccc1)c1ccc2[nH]ncc2c1 | – | – | – | > 86 | – | – | – | – | – | – | – | – | – | – | – | – | – | – | –
Cn1cc2cc(C(=O)Nc3ccc(F)c(Cl)c3)ccc2n1 | 3.24 | 2.64 | 2.55 | 70 | -3.36 | 17.2 ×10⁻⁶ cm/s | 8.16 ×10⁻⁶ cm/s | -3.36 | 3.57 nM | -3.38 | 421 µM (≈ 128 µg/mL) | 439 µM (≈ 133 µg/mL) | 9.11 ×10⁻⁶ cm/s | 9.35 ×10⁻⁶ cm/s | 441 µM (≈ 134 µg/mL) | 8.13 nM | – | – | –
Cn1ncc2cc(C(=O)Nc3ccc(Cl)c(Cl)c3)ccc21 | – | – | – | – | -5.45 | 22.3 ×10⁻⁶ cm/s | 18.3 ×10⁻⁶ cm/s | -5.39 | – | -5.52 | 3.04 µM (≈ 0.973 µg/mL) | 4.07 µM (≈ 1.3 µg/mL) | 16.8 ×10⁻⁶ cm/s | 18.6 ×10⁻⁶ cm/s | 3.51 µM (≈ 1.12 µg/mL) | – | – | – | –
O=C(Nc1ccc(F)c(F)c1)c1ccc2[nH]ncc2c1 | 2.17 | – | 1.94 | 6290 | -4.22 | 8.15 ×10⁻⁶ cm/s | ≤ 0.59 ×10⁻⁶ cm/s | -4.21 | – | -4.2 | 62.7 µM (≈ 17.1 µg/mL) | 61.1 µM (≈ 16.7 µg/mL) | ≤ 0.59 ×10⁻⁶ cm/s | ≤ 0.59 ×10⁻⁶ cm/s | 60.7 µM (≈ 16.6 µg/mL) | 6.61 nM | – | – | –
COCCn1ncc2cc(C(=O)Nc3ccc(Cl)c(Cl)c3)ccc21 | – | – | – | > 2660 | – | – | – | – | 0.48 nM | – | – | – | – | – | – | 2870 nM | 3.82 nM | > 10000 nM | 1.08 nM
Cn1cc2cc(C(=O)Nc3ccc(F)c(F)c3)ccc2n1 | – | – | – | 20 | – | – | – | – | – | – | – | – | – | – | – | – | – | – | –

More lines, main results first:

logD at […] [1] | logD at […] [2] | logD at […] [7] | Ratio IC50 (Homo sapiens) | Structure (SMILES) | log(Kinetic_solubility) [3] | Papp at 4 h, 200 µM [4] | Papp at 4 h, 200 µM [5] | log(Kinetic_solubility) [6] | Ki [8] | log(Kinetic_solubility) [9] | solubility kinetic at […], 500 µM (physchem [10]) | solubility kinetic at […], 500 µM (physchem [11]) | Papp at 4 h, 200 µM [12] | Papp at 4 h, 200 µM [13] | solubility kinetic at […], 500 µM (physchem [14]) | IC50 [15] | IC50 [16] | IC50 [17] | IC50 [8]
– | – | – | 6580 | Cn1ncc2cc(C(=O)Nc3ccc(F)c(F)c3)ccc21 | – | – | – | – | – | – | – | – | – | – | – | – | – | – | –
-2.46 | -0.37 | -0.76 | – | COCCc1ccc(OCC(O)CNC(C)C)cc1 (stereo unspecified) [METOPROLOL] | – | – | – | – | – | – | – | – | – | – | – | – | – | – | –
– | – | – | 17100 | O=C(Nc1ccc(Cl)c(Cl)c1)c1ccc2[nH]ncc2c1 | – | – | – | – | – | – | – | – | – | – | – | – | – | – | –
2.39 | – | 2.52 | – | Cn1ncc2cc(C(=O)Nc3ccc(F)c(Cl)c3)ccc21 | – | 37.6 ×10⁻⁶ cm/s | 27.2 ×10⁻⁶ cm/s | – | – | – | 69.1 µM (≈ 21 µg/mL) | 57.5 µM (≈ 17.5 µg/mL) | 29.5 ×10⁻⁶ cm/s | 31.7 ×10⁻⁶ cm/s | 77.4 µM (≈ 23.5 µg/mL) | – | – | – | –
